# Results as given in ChEMBL document CHEMBL4765227, “Hit to lead optimization of a series of N-[4-(1,3-benzothiazol-2-yl)phenyl]acetamides as monoacylglycerol lipase inhibitors with potential anticancer activity” (Eur J Med Chem, 2016).
# Key:
# Type in all cases: functional
# [1] = system: CCRF-CEM; test: Growth inhibition of human CCRF-CEM cells incubated for 48 hrs by sulforhodamine B assay
# [2] = system: OVCAR-8; test: Growth inhibition of human OVCAR-8 cells incubated for 48 hrs by sulforhodamine B assay
# [3] = system: NCI-H226; test: Growth inhibition of human NCI-H226 cells incubated for 48 hrs by sulforhodamine B assay
# [4] = system: NCI/ADR-RES; test: Growth inhibition of human NCI/ADR-RES cells incubated for 48 hrs by sulforhodamine B assay
# [5] = system: IGROV-1; test: Growth inhibition of human IGROV-1 cells incubated for 48 hrs by sulforhodamine B assay; conditions: for CC50: read-out: LC50 (the source's name)
Compound,GI50 [1] [nM],TGI [1] [nM],CC50 ([1]; read-out: LC50 (the source's name)) [µM],GI50 [2] [nM],LC50 [2] [µM],TGI [2] [µM],GI50 [3] [nM],LC50 [3] [µM],TGI [3] [µM],GI50 [4] [µM],LC50 [4] [µM],TGI [4] [µM],GI50 [5] [nM],TGI [5] [µM],CC50 [5] [µM]
O=C(CNc1c(Cl)cccc1Cl)Nc1ccc(-c2nc3ccccc3s2)cc1,657,2970,45.9,2640,> 100,8.9,2020,> 100,5.32,3.06,> 100,8.06,1920,4.33,9.73
O=C(CNc1ccc(Cl)cc1)Nc1ccc(-c2nc3ccccc3s2)cc1,–,–,–,2560,> 100,7.06,2250,> 100,7.1,3.03,> 100,8.5,1900,4.27,9.59
